Experimental data: patent EP2340832A1, “Morphinan-6-one compounds for the treatment or prevention of neurodegenerative diseases” (Universität Innsbruck, priority 2009, dated 2011)

Molecular target: µ opioid receptor (Rattus norvegicus, UniProt P33535)
Assay: [35S]GTPγS functional assay, rat brain membranes, µ receptor
Assay type: biochemical, Sprague-Dawley rat
Parameters: from tissue; host or cells: Sprague-Dawley rat brain (without cerebella) membranes
Conditions: read-out: Emax (% of basal activity)
Experimental: Membrane fractions were prepared from Sprague-Dawley rat or guinea pig brains as described above. To determine binding of [^35S]GTPyS, rat or guinea pig brain membranes (10 µg of protein) were incubated for 60 min at 30 °C in Tris-EGTA buffer (50 mM Tris-HCl buffer, 3 mM MgCl2, 1 mM EGTA, […], pH 7.4) containing 30 µM GDP, 0.05 nM [^35S]GTPyS and appropriate concentrations of the respective compounds according to the present invention in a final volume of 1 ml. The reaction was terminated by vacuum filtration through Whatman GF/B glass fibre filters. Filters were washed three times with ice-cold 50 mM Tris-HCI buffer (pH 7.4) and the bound radioactivity was measured by liquid scintillation counting (Beckman Coulter™ LS6500). Basal activity was determined by subtracting the non-specific binding (measured in the presence of 100 µM unlabelled GTPyS) from the total binding (measured in the absence of the compound).
Stimulation produced by the compound is given as percentage of the basal activity (given as 100%). Functional data, EC50 (nM; half maximal effective concentration) and maximal stimulation Emax (% stimulation over basal level; maximal effective concentration), were calculated by using nonlinear regression analysis and sigmoidal curve fitting GraphPad Prism (San Diego, CA, USA) program. […]

Chain of µ opioid receptor (P33535 whole entry): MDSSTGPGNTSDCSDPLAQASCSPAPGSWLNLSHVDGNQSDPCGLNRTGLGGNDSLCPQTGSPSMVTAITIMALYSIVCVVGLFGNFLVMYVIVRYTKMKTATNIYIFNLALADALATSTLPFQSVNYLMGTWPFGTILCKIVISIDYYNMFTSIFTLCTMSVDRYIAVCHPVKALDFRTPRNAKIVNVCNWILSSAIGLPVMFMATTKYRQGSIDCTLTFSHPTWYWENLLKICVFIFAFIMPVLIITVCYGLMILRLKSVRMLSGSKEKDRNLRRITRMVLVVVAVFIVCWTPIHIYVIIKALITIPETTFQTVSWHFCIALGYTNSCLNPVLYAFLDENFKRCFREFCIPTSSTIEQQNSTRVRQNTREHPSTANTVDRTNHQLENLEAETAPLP

C[C@@H](NC(=O)[C@@H](N)Cc1ccc(O)cc1)C(=O)NCC(=O)N(C)[C@@H](Cc1ccccc1)C(=O)NCCO [DAMGO, [D-Ala^2, Me-Phe ^4, Gly-ol^5]enkephalin]
Emax: 179 ± 5%
